Data set [1] is described as follows: Solubility of PVPI, I2/NaI and I2 in plasticizer compounds.
The conditions of data set [2]: cited from earlier work.

SMILES strings stand for the structures. Like-named read-outs stand apart in the source and are kept apart here.

For the compound `CCCCNS(=O)(=O)c1ccccc1` [Plasthall BSA, N-n-butylbenzenesulfonamide], in data set [1], the “Solubility of 2% I2/2.4% NaI in the plasticizer” value is reported as “Soluble” and the “Solubility of 18% I2 in the plasticizer” value is recorded as “Soluble”.

Take `CCCCC(CC)C(=O)OCCOCCOCCOCCOC(=O)C(CC)CCCC` (stereo not shown) [TerMerR 804, tetraethyleneglycol di-2ethylhexanoate]: in data set [1], the “Solubility of 2% I2/2.4% NaI in the plasticizer” value is given as “Soluble” and the “Solubility of 18% I2 in the plasticizer” value is listed as “Soluble”.

Consider `II` [iodine], for which the values for the Vapor pressure in data set [2] (at 25C), in data set [2] (at 90C) and in data set [2] (at 184.4C (boils)) were 0.30 mmHG, 26.7 mmHg and 760 mmHg, respectively.
